Test results: patent publication US9540613B2, “Methods for producing insulin-secreting beta cells from human pluripotent stem cells” (Wisconsin Alumni Research Foundation, priority 2013, dated 2017)

Columns and labels:
[1] = test system: PDX1 and insulin protein expression in H1 cells; assay: Flow cytometry of PDX1 and insulin protein expression at end of Stage 4; type: cell-based, human; conditions: for PDX1 and insulin double positive cells: loss of both nicotinamide and Exendin-4 from Stage 4 medium
From the text: To quantify insulin and PDX1 protein expression we optimized a flow cytometry assay. […] The INS-1 cell line is an immortalized pancreatic beta cell line that expresses both PDX1 and insulin. On the bottom left, is our negative control, unstained H1 cells differentiated for 18 days. On the right, is H1 cells differentiated by the current protocol through day 18 stained with Insulin-PB and PDX1-AF488. […] Only 8-11% of the cells are PDX1 and insulin double positive.
To examine protein expression we collected cells at the end of Stage 4 and examined them by flow cytometry.
Thus, the effect of Noggin is context dependent and synergistic with nicotinamide and Exendin-4.

[2] = test system: PDX1, NKX6.1, Neurogenin 3 and insulin gene expression; assay: QPCR gene expression of endoderm and pancreatic markers in differentiated cells; type: cell-based, human; conditions: presence or absence of nicotinamide at Stage 3
Protocol: QPCR was performed at the end of Stage 4 ([…] Day 18) to examine gene expression of PDX1, a marker of pancreatic epithelium and progenitor cells, insulin, a marker of beta cells, and Sox9 which is expressed in the developing pancreatic epithelium. The gene expression is compared to undifferentiated cells collected at Day 0 and β-Actin is the internal control. […] Human Fetal Pancreas (HFP), gestation 14-20 weeks, is represented as a positive control.
In FIG. 19, the gene expression is compared to undifferentiated cells collected at Day 0 and B-Actin is the internal control. On the y axis is delta CT (instead of fold change), thus, the lower the value the greater the gene expression.
First, alterations at Stage 3 and 4 altered gene expression minimally. […] On the y axis is delta CT (instead of fold change), thus, the lower the value the greater the gene expression. […] In contrast the addition of Noggin at Stage 4, decreased PDX1 and NKX6.1 gene expression and increased Neurogenin 3 expression. There was no difference in insulin gene expression following the addition of Noggin to Stage 4.

[3] = addition of nicotinamide at Stage 3, cells at end of Stage 4

Compound | PDX1 protein expression [1, 3] | double positive PDX and insulin positive cells [1, 3] | insulin protein expression [1, 3] | PDX1 and insulin double positive cells [1] | protein expression ([1]; loss of nicotinamide from Stage 4 medium) | gene expression (delta CT) [2] | insulin protein expression ([1]; FGF2 instead of FGF7 at Stage 2) | protein expression of either PDX1 or insulin ([1]; loss of Exendin-4 from Stage 4 medium)
NC(=O)c1cccnc1 [nicotinamide] | decreased | little difference | increased | increases PDX1 and insulin double positive cells | little to no loss | did not alter gene expression | – | –
FGF2: Basic fibroblast growth factor | – | – | – | – | – | – | less insulin protein expression | –
Exendin-4: a long-acting GLP-1 agonist | – | – | – | increases PDX1 and insulin double positive cells | – | – | – | little to no difference
